The test system of the test is AKT. Put plainly: AKT In Vivo Target Inhibition (IV), U87MG tumors in athymic rats. The settings on record: Rattus norvegicus, U-87 MG, IV dose 20 mpk, 4 hr post IV dose, n = 2, read-out: p(S9)GSK 3β - % inhibition. On the procedure:
Exponentially growing U87MG cells derived from a human glioblastoma are implanted subcutaneously in the rear flank of athymic rats. When the tumors reach the size of 200-250 mm^3, compounds are administered to the animals by a single IV injection in a dose-response study or in a time-course study. At the end of each treatment, animals are asphyxiated with CO2. Tumors are harvested by surgical excision, quickly frozen in liquid nitrogen and stored at −80° C. until analysis. Sera are prepared from blood harvested from the heart by cardiac puncture and stored at −80° C. until analysis.
The AKT inhibitor is extracted from serum with acetonitrite/methanol and analyzed alongside an internal standard by LC/MS/MS. […]
Tumors are homogenized in 2 volumes of a lysis buffer containing 25 mM Tris (pH 7.5), Roche complete protease inhibitors, and 1 mM vanadate with Powergen 125 homogenizer, then sequentially passed through an 18 gauge needle and a 23 gauge needle. […] Protein concentrations in the cytoplasmic extracts are determined with a BCA kit. Phospho-GSK3b (pGSK3b) in the soluble extracts is analyzed with the ELISA Kit. For each study, percent inhibitions are calculated relative to the vehicle control group and ANOVA analysis is performed using the JMP software package for the determination of statistical significance.

One may read the inhibition as the relative decrease from the control value, in per cent. For the molecule `C[C@@H]1CC(=O)Nc2ncnc(N3CCC(c4nc(C(F)(F)F)cn4CCN4CCCC4)CC3)c21` [Example 78, (R)-5-Methyl-4-(4-(1-(2-(pyrrolidin-1-yl)ethyl)-4-(trifluoromethyl)-1H-imidazol-2-yl)piperidin-1-yl)-5,6-dihydropyrido[2,3-d]pyrimidin-7(8H)-one], the inhibition at 20 mg/kg was 48%.

(Values after patent publication US8436002B2, “AKT inhibitors” (Eli Lilly and Company, priority 2009, dated 2013).)
